Reference: patent publication US20130296278A1, “Diazeniumdiolate Derivatives” (Merck Sharp & Dohme Corp., priority 2011, published 2013)

assay: Rate of NO release (UV absorbance decay at 248 nm in pH 7.4 buffer); assay type: physicochemical; details: 0.25 mM diazeniumdiolate in 100 mM pH 7.4 phosphate buffer, 22° C., absorbance at 248 nm; t½=ln(2)/k
Description: Compounds of the invention were evaluated for the rate of NO release using the following protocol described below.
The method described by Maragos, C. M, et al. Med. Chem. 1991, 34, 3242-3247, was followed. A 100 mM solution of pH 7.4 buffer was prepared by dissolving 626 mg of NaH2PO4.H2O and 4155 mg of Na2HPO4.7H2O in 200 mL of water. The 0.01 M solution of the individual diazeniumdiolate was prepared by dissolving the sodium diazeniumdiolate in 0.01 M sodium hydroxide solution. All solutions used were kept at room temperature. The cuvette incubator was set at 22° C. 25 μL of the 0.01 M diazeniumdiolate solution was added to a cuvette, followed by dilution with 975 μL of pH 7.4 buffer to obtain a 0.25 (25 uL of 0.01 M diluted to 1000 ul will be 0.25 mM) mM solution. The cuvette was inserted into the UV spectrometer, and its absorbance at λ=248 nm was acquired every 3 seconds.
The general first-order rate equation is: […]
The method of Kezdy, F. J.; Jaz, J.; Bruylants, A. Bull. Soc. Chim. Belg. 1958, 67, 687-706, later elaborated by Schwartz, L. M.; Gelb, R. I. Anal. Chem. 1978, 50, 1592-1594, was used to analyze the data without measuring A∞. Two equations are obtained when the measurement At is made at t and At+Δt is made at t+Δt. Dividing these two equations and rearranging the resultant equation, we arrive at
At=At+Δte^−k!+A∞(1−e^kΔt)
Plotting At against At+Δt would yield a straight line with k=−ln(slope)/Δt, A∞=intercept/(1−slope). As a result, t½=ln(2)/k.

Structure (SMILES)	half-life at 0.25 mM [min]
CCCN(/[N+]([O-])=N/[O-])C(C)(C)C.[Na+] [Example 1, Sodium 1-(N-tert-butyl-N-propylamino)diazen-1-ium-1,2-diolate]	1.45
C=CCN(/[N+]([O-])=N/[O-])C(C)(C)C.[Na+] [Example 2, Sodium 1-(N-text-butyl-N-allylamino)diazen-1-ium-1,2-diolate]	3.17
CC(C)(C)N(CCO)/[N+]([O-])=N/[O-].[Na+] [Example 3, Sodium 1-[N-tert-butyl-N-(2′-hydroxyethyl)amino]diazen-1-ium-1,2-diolate]	3.42
